Format in all cases: cell-based
Assay [1] deals with human α1G T-type channels (Homo sapiens, UniProt O43497). Kind of assay: T-type calcium channel block, whole cell patch clamp, α1G. Conditions: HEK cells stably expressing human α1G; mainly non-inactivated protocol; values above 10,000 nM represented as 10000. The method, boiled down: (§1)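 Whole-cell T-type currents, stably transfected HEK 293 (human α1G/α1H), passage 4-20. Cmpd in external soln, 0.1-0.01% DMSO, local gravity perfusion after ~10 min rest. Two voltage protocols: non-inactivating (resting block), inactivation (voltage-dependent block).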

Assay [2] has as its target N-type calcium channel subunits (α1B, α2δ, and β3a) (Homo sapiens, UniProt Q00975). Kind of assay: Block of Cav2.2 channel, whole cell voltage clamp, manual and PatchXpress. The note with it: Table 5; table follows Assay Example 3 (whole cell voltage clamp / PatchXpress); assay not given. Summed up:
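Percent block taken as current amplitude ratio with versus without compound, applied in rising doses; IC50 fitted where one cell received multiple doses. Protocol: 50 ms pulses to +20 mV at 0.067 Hz from […] or −90 mV holding; P/n leak subtraction, no junction-potential correction; manual and PatchXpress recordings.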

The target of assay [3] is human α1H T-type channels (Homo sapiens, UniProt O95180). Kind of assay: T-type calcium channel block, whole cell patch clamp, α1H. Conditions: HEK cells stably expressing human α1H; mainly non-inactivated protocol; values above 10,000 nM represented as 10000. The method, boiled down: as §1
Background: Patch clamp records ionic current or voltage across a cell membrane.

Consider 18 molecules from US20120245137A1 (Zalicus Pharmaceuticals Ltd., priority 2009, published 2012).

Chain of human α1G T-type channels (O43497 whole entry, the tested form may be a part): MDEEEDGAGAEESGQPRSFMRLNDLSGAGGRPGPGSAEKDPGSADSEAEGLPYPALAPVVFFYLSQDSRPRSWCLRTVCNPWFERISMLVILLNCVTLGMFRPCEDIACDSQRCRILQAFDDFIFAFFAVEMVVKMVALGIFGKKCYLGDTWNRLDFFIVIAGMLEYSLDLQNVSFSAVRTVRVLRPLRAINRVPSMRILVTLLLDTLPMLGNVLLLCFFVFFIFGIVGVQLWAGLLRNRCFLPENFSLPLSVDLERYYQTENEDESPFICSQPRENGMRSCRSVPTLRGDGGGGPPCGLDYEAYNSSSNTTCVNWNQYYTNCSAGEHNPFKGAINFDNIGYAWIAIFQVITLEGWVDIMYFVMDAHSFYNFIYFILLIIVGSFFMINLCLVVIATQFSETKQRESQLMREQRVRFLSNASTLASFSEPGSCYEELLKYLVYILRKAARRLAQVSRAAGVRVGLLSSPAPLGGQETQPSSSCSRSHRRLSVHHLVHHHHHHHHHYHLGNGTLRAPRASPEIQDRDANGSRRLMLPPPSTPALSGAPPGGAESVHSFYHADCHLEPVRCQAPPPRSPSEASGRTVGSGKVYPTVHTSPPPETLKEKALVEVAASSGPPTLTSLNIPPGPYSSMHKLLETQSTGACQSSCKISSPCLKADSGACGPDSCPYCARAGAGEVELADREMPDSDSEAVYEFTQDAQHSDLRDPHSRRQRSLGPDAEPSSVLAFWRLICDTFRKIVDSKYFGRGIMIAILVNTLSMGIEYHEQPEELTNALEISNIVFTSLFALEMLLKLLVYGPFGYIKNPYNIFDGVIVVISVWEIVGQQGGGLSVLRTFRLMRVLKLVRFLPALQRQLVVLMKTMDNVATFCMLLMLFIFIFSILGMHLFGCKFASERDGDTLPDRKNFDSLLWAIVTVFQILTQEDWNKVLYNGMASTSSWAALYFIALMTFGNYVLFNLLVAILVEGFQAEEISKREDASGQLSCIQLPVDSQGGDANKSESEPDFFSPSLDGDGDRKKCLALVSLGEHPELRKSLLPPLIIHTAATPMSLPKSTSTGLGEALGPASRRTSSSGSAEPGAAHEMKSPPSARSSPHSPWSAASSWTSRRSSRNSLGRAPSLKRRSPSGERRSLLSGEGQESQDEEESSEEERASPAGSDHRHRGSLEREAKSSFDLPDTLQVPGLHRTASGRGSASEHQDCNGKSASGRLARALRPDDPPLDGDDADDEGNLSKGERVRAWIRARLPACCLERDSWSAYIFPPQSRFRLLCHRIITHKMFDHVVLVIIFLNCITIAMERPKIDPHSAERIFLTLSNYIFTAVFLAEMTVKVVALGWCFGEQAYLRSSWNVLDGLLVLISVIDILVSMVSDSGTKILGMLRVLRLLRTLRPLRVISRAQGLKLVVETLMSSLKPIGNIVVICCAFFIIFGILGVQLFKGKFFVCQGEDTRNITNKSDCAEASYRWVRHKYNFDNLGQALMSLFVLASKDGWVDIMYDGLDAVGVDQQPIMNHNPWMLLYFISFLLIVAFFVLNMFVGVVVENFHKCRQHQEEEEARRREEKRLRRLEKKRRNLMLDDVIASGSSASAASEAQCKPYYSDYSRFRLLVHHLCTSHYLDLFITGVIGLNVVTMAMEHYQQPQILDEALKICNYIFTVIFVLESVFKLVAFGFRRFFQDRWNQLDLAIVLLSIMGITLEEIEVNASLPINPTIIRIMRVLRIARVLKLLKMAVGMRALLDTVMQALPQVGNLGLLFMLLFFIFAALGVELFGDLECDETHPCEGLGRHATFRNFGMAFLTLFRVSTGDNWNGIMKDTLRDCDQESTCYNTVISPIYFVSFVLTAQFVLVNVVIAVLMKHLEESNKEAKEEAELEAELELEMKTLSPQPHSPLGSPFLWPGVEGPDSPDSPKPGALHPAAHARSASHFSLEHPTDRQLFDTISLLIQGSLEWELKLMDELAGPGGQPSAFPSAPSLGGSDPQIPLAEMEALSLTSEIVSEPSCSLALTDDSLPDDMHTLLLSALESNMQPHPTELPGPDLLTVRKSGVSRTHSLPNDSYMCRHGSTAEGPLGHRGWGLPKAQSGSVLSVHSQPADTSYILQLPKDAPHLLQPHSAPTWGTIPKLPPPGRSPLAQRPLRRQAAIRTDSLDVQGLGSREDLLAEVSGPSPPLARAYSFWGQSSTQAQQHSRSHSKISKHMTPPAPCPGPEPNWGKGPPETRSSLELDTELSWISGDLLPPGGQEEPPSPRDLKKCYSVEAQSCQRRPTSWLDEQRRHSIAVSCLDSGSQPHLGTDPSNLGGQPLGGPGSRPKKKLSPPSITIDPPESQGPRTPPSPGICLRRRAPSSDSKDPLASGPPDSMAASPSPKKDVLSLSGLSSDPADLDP
Chain of human α1H T-type channels (O95180 whole entry): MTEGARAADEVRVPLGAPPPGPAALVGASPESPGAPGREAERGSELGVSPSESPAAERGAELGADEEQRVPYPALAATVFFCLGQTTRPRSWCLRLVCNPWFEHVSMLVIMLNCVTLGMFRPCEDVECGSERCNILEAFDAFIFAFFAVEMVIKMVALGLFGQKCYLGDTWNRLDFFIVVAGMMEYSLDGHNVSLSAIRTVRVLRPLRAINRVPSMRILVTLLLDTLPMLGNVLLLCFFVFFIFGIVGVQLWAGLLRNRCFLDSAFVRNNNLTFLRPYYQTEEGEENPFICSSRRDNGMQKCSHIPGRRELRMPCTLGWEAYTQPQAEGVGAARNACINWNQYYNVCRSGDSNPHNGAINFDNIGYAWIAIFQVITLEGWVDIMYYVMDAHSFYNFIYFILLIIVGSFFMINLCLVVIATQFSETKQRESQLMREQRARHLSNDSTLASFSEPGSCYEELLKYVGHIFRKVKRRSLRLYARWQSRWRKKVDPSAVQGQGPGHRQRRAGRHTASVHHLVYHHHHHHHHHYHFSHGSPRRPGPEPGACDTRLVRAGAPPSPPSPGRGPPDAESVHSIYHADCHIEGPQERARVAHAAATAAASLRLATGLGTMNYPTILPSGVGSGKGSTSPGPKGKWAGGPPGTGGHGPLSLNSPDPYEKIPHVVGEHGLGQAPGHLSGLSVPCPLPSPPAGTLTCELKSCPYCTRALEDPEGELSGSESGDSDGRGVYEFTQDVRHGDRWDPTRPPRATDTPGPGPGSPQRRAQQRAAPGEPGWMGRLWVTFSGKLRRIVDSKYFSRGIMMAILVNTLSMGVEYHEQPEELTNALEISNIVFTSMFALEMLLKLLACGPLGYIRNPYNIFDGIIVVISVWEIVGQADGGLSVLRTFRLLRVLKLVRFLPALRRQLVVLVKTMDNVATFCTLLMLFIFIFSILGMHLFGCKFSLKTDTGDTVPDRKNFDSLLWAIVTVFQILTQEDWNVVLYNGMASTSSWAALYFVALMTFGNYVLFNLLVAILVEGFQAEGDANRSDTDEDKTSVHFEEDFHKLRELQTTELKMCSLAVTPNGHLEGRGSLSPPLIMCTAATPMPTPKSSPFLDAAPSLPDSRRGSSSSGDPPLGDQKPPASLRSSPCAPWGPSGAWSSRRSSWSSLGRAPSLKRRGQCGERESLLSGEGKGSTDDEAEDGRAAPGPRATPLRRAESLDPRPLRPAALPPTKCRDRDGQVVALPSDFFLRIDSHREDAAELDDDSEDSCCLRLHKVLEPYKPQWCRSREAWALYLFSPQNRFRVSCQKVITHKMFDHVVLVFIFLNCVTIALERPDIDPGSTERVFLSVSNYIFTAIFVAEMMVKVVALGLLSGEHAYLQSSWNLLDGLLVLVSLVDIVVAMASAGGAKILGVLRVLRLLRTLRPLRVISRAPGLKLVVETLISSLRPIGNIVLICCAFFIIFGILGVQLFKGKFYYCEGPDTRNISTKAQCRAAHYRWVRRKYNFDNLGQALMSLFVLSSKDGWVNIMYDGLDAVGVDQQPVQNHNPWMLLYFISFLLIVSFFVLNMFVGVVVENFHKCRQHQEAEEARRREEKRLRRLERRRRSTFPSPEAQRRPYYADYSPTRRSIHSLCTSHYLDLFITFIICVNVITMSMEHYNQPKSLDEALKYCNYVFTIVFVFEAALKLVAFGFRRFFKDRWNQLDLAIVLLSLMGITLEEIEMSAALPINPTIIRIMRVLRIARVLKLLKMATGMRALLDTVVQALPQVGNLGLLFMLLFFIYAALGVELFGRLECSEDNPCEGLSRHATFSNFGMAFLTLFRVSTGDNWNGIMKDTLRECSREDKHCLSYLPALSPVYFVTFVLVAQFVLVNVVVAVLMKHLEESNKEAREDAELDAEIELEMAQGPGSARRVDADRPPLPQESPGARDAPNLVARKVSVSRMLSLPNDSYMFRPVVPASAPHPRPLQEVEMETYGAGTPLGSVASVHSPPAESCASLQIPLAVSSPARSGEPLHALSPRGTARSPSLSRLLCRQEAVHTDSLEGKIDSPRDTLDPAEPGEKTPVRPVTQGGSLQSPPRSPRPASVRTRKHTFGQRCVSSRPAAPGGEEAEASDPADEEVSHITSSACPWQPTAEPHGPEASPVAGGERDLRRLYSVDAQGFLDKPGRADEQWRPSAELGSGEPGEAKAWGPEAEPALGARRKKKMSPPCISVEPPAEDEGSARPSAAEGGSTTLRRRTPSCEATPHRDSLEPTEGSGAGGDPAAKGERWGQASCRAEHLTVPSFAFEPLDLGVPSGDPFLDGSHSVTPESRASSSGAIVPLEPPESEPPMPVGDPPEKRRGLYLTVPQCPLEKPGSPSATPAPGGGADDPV

What is called IC50 is the concentration that inhibits the measured activity by half. As to `CS(=O)(=O)c1cc(C(F)(F)F)cnc1C(=O)N[C@H]1CC[C@@](F)(S(=O)(=O)c2cccc(C(F)(F)F)c2)CC1` [Compound 259, N-((1S,4S)-4-fluoro-4-(3-(trifluoromethyl)phenylsulfonyl)cyclohexyl)-3-(methylsulfonyl)-5-(trifluoromethyl)picolinamide], the IC50 in assay [1] is 6.11 µM; in assay [2], 500 nM; in assay [3], 9.62 µM.
With `COc1cc(Cl)ccc1C(=O)N[C@H]1CC[C@@H](S(=O)(=O)c2cccc(C(F)(F)F)c2)CC1` [Compound 134, 4-chloro-2-methoxy-N-((1S,4S)-4-(3-(trifluoromethyl)phenylsulfonyl)cyclohexyl)benzamide], the IC50 amounted to 2.63 µM in assay [1], 500 nM in assay [2] and 1.82 µM in assay [3].
As to `O=C(NC[C@H]1C[C@H](S(=O)(=O)c2cccc(C(F)(F)F)c2)C1)c1cn2cc(C(F)(F)F)ccc2n1` [Compound 360, 6-(trifluoromethyl)-N-(((1R,3R)-3-(3-(trifluoromethyl)phenylsulfonyl)cyclobutyl)methyl)imidazo[l,2-a]pyridine-2-carboxamide], the values for the IC50 in assay [1], in assay [2] and in assay [3] were over 10 µM, 190 nM and over 10 µM, respectively.
For the molecule `O=C(Nc1cncc(Cl)c1)[C@H]1C[C@@H](S(=O)(=O)c2cccc(C(F)(F)F)c2)C1` [Compound 420, (1S,3S)-N-(5-chloropyridin-3-yl)-3-(3-(trifluoromethyl)phenylsuIfonyl)cyclobutane carboxamide], the IC50 in assay [1] turned out to be 2.02 µM; in assay [2], 1250 nM; in assay [3], 0.71 µM.
On to `O=C(N[C@H]1CC[C@@](F)(S(=O)(=O)c2cccc(C(F)(F)F)c2)CC1)c1ccc(Cl)cc1Cl` [Compound 270, 2,4-dichloro-N-((1S,4S)-4-fluoro-4-(3-(trifluoromethyl)phenylsulfonyl)cyclohexyl) benzamide], for which the IC50 in assay [1] was determined as 2.54 µM; in assay [2], 210 nM; in assay [3] it was 3.58 µM.
For `Cn1nc(C(F)(F)F)cc1C(=O)NC[C@H]1CC[C@@H](S(=O)(=O)c2cccc(C(F)(F)F)c2)CC1` [Compound 32, 1-methyl-3-(trifluoromethyl)-N-(((1S,4S)-4-(3-(trifluoromethyl)phenylsulfonyl)cyclohexyl)methyl)-1H-pyrazole-5-carboxamide] the same measures were 0.5 µM, 440 nM and 2.69 µM.
For `Cn1nc(C(F)(F)F)cc1C(=O)NC[C@H]1C[C@@H](S(=O)(=O)c2cccc(C(F)(F)F)c2)C1` [Compound 378, 1-methyl-3-(trifluoromethyl)-N-(((1S,3S)-3-(3-(trifluoromethyl)phenylsulfonyl)cyclobutyl)methyl)-1H-pyrazole-5-carboxamide], in that order: 2.79 µM, 1130 nM and 1.63 µM.
On to `COc1ccc(C(C)(C)NC(=O)[C@H]2C[C@H](S(=O)(=O)c3cccc(C(F)(F)F)c3)C2)cc1` [Compound 403, (1R,3R)-N-(2-(4-methoxyphenyl)propan-2-yl)-3-(3-(trifluoromethyl)phenylsulfonyl)cyclobutane carboxamide], for which the IC50 came out at 1.19 µM in assay [1], 1460 nM in assay [2] and 1.04 µM in assay [3].
For `Cn1nc(C(F)(F)F)cc1NC(=O)[C@H]1C[C@H](S(=O)(=O)c2cccc(C(F)(F)F)c2)C1` [Compound 407, (1R,3R)-N-(1-methyl-3-(trifluoromethyl)-1H-pyrazol-5-yl)-3-(3-(trifluoromethyl)phenylsulfonyl) cyclobutanecarboxamide], in that order: over 10 µM, 5630 nM and 1.66 µM.
For `O=C(Nc1ccc(C(F)(F)F)cn1)[C@H]1C[C@@H](S(=O)(=O)c2cccc(C(F)(F)F)c2)C1` [Compound 416, (1S,3S)-3-(3-(trifluoromethyl)phenylsulfonyl)-N-(5-(trifluoromethyl)pyridin-2-yl)cyclobutanecarboxamide], in that order: over 10 µM, 1650 nM and 8.18 µM.
For `Cn1nc(C(F)(F)F)cc1C(=O)NC1CCC(C)(S(=O)(=O)c2cccc(C(F)(F)F)c2)CC1` (stereo not drawn) [Compound 6, 1-methyl-N-(4-methyl-4-(3-(trifluoromethyl)phenylsulfonyl)cyclohexyl)-3-(trifluoromethyl)-1H-pyrazole-5-carboxamide] the same measures were over 10 µM, 330 nM and over 10 µM.
Consider “3-chloro-5-fluoro-N-((1S,4S)-4-((3- (trifluoromethyl)phenylsulfonyl) methyl)cyclohexyl)benzamide [Compound 137]”, for which the results for the IC50 in assay [1], in assay [2] and in assay [3] were 0.43 µM, 320 nM and 0.33 µM, respectively.
Regarding `Cc1nn(C)c(C)c1S(=O)(=O)N[C@H]1CC[C@@](F)(S(=O)(=O)c2cccc(C(F)(F)F)c2)CC1` [Compound 293, N-((1S,4S)-4-fluoro-4-(3-(trifluoromethyl)phenylsulfonyl)cyclohexyl)-1,3,5-trimethyl-1H-pyrazole-4-sulfonamide], the results for the IC50 in assay [1], in assay [2] and in assay [3] were 4.77 µM, 1630 nM and 1.85 µM, respectively.
For `O=C(N[C@H]1CC[C@@H](S(=O)(=O)c2cccc(C(F)(F)F)c2)CC1)c1cc(-c2ccc(F)cc2)n[nH]1` [Compound 46, 3-(4-fluorophenyl)-N-((1S,4S)-4-(3-(trifluoromethyl)phenylsulfonyl)cyclohexyl)-1H-pyrazole-5-carboxamide] the same measures were 1.25 µM, 1060 nM and 0.91 µM.
For `Cc1cc(NC(=O)CN[C@H]2CC[C@@H](S(=O)(=O)c3cccc(C(F)(F)F)c3)CC2)on1` [Compound 54, N-(3-methylisoxazol-5-yl)-2-((1S,4S)-4-(3-(trifluoromethyl)phenylsulfonyl)cyclohexylamino)acetamide], in that order: over 10 µM, 4630 nM and 7.29 µM.
Turning to `O=C(N[C@H]1CC[C@](F)(S(=O)(=O)c2cccc(C(F)(F)F)c2)CC1)c1nc2cc(C(F)(F)F)ccc2[nH]1` [Compound 80, N-((1R,4R)-4-fluoro-4-(3-(trifluoromethyl)phenylsulfonyl)cyclohexyl)-5-(trifluoromethyl)-1H-benzo[d]imidazole-2-carboxamide], the values for the IC50 in assay [1], in assay [2] and in assay [3] were 0.9 µM, 4310 nM and 0.46 µM, respectively.
For `CS(=O)(=O)c1ccc(C(=O)N[C@H]2CC[C@@](F)(S(=O)(=O)c3cccc(C(F)(F)F)c3)CC2)cc1` [Compound 271, N-((1S,4S)-4-fluoro-4-(3-(trifluoromethyl)phenylsulfonyl)cyclohexyl)-4-(methylsulfonyl)benzamide], in that order: 2.63 µM, 8160 nM and 1.65 µM.
On to `O=C(N[C@H]1CC[C@H](CS(=O)(=O)c2cccc(C(F)(F)F)c2)CC1)c1ccc(F)c(C(F)(F)F)c1` [Compound 99, 4-fluoro-3-(trifluoromethyl)-N-((1R,4R)-4-((3-(trifluoromethyl)phenylsulfonyl)methyl)cyclohexyl)benzamide], for which the IC50 in assay [1] was over 10 µM; in assay [2], 3750 nM; in assay [3] it was over 10 µM.
